Calls of active or inactive are those of the source.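 The calls were made as follows: active = compounds giving half or more protection of infected cells from virus-caused growth loss, again on retest; inactive = the rest.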
Test system: CEM cells HIV-1 protection, formazan growth assay
Assay: NCI AIDS Antiviral Assay
Conditions: for IC50: measured here: growth of uninfected CEM cells
In short: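 Soluble formazan readout of cell growth; CEM cells ± HIV-1; 5 drug concs. ≥50% protection → retest; ≥50% again = moderately active; reproducible 100% = confirmed active.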

Structure (SMILES) | EC50 | IC50 | outcome
O=C1c2cc([N+](=O)[O-])cc3cc([N+](=O)[O-])cc(c23)C(=O)N1CCNCCN1C(=O)c2cc([N+](=O)[O-])cc3cc([N+](=O)[O-])cc(c23)C1=O | > 29.5 µM | 0.0912 µM | –
Cc1ccc(C2(C)NC(=S)N(NC(N)=S)C2=S)cc1 (configuration not stated) | > 32.4 µM | > 32.4 µM | –
CCCCCCC[CH2][Sn]([Cl])([Cl])[CH2]CCCCCCC | – | – | inactive
NC(=O)N=C(N(Cc1ccccc1)Cc1ccccc1)N(Cc1ccccc1)Cc1ccccc1 | > 7.59 µM | 2.24 µM | –
Cc1ccc2c(c1)CN1c3ccc(C)cc3CN2C1c1ccccc1O | – | – | inactive
N#CC(C(=O)/C(=N\NC(N)=O)C(C#N)c1ccccc1)c1ccccc1 (configuration not stated) | > 724 µM | > 724 µM | –
CCCCC#COP(=O)(OCC)OCC | > 251 µM | > 251 µM | –
CSC1=Nc2cc3c(cc2C(=O)N2C[C@H](O)CC12)OCO3 (some centres not stated) | > 200 µM | 110 µM | –
Nc1ncnc2c(C3OC(CO)C(O)C3O)c[nH]c12 (configuration not stated) | > 832 µM | 0.263 µM | –
CC(=O)O[C@]12CCCCC1C1(O)C(O)CCCCC12 (some centres not stated) | > 200 µM | > 200 µM | –
N#CC(C#N)=Cc1ccc(Cl)cc1 | > 72.4 µM | 66.1 µM | –
COc1ccc2c3c(c(C(=O)c4ccccc4)oc13)CCC2 | – | – | inactive
CCC1NC(=O)C1NC(=O)OC (configuration not stated) | – | – | inactive
NC(Cc1ccccc1)C(=O)NC(Cc1ccccc1)NC(=O)C(Cc1c[nH]c2ccccc12)C(=O)O (configuration not stated) | – | – | inactive
O=C(O)c1ccc(-n2[se]c3ccccc3c2=O)cc1 | 7.24 µM | 20.4 µM | –
COc1ccc(/C=C2\N=C(SC)N(CN3CCCCC3)C2=O)cc1 | > 200 µM | > 200 µM | –
CCCCCCCCCCCCCCCCP(=O)([O-])OCC[N+](C)(C)C | > 200 µM | 12 µM | –
COc1cc(-c2oc(C=Nc3ccccc3)c([N+](=O)[O-])c2-c2ccc(O)c(OC)c2)ccc1O | > 200 µM | 7.59 µM | –
N#C/C(=C1\SC(=O)CN1c1ccccc1)c1nc2ccccc2o1 | > 200 µM | > 200 µM | –
C[C@]12C[C@@H](c3ccccc3)Nc3ccccc3N1C(c1ccccc1)=NO2 | > 200 µM | 30.9 µM | –
CCN(CCCN(CC)C(=O)Nc1ccccc1)C(=O)Nc1ccccc1 | > 200 µM | 155 µM | –
CC(C)=NOC(=O)Nc1cccc2c1OCO2 | > 200 µM | > 200 µM | –
COc1ccc2nc3cc([N+](=O)[O-])ccc3c(NCCCN(CCO)CCO)c2c1 | > 200 µM | 2.51 µM | –

Structure (SMILES) | EC50 | IC50 | outcome
Oc1c(Cl)cc(Cl)c2cccnc12 | – | – | inactive
COc1cc(OCc2ccccc2)c(O)cc1-c1coc2cc(OCc3ccccc3)ccc2c1=O | > 200 µM | 4.27 µM | –
OC12C=CC(CCCC1)O2 (configuration not stated) | > 200 µM | 12.3 µM | –
O=S(=O)([N-]c1nc2ccccc2nc1-[n+]1ccccc1)c1ccccc1 | > 100 µM | > 100 µM | –
CC(C)(C)C1=CP(=O)(c2ccccc2)C=C(C(C)(C)C)N1 | > 200 µM | > 200 µM | –
C#CC(C)(C)OC(=O)C(=[N+]=[N-])C(C)=O | > 200 µM | > 200 µM | –
COc1cc2c(cc1OC)C(C(CO)CO)N(CC(O)CCl)CC2 (configuration not stated) | > 692 µM | > 692 µM | –
CCCCS(=O)(=O)CCC(N)C(=O)O (configuration not stated) | > 100 µM | > 100 µM | –
CN(C)C(=S)OC(Cn1cncn1)c1ccc(Cl)cc1Cl (configuration not stated) | > 513 µM | 427 µM | –
CCOC(=O)C1C(=S)NC(=O)C1C#N (configuration not stated) | – | – | inactive
O=C(/C=C\c1cccc2ccccc12)c1ccc(F)cc1 | > 7.24 µM | > 7.24 µM | –
CC(C)Cn1cnc2c(Cl)nc3ccccc3c21 | > 200 µM | 41.7 µM | –
O=C(Nc1nc(=S)[nH][nH]1)C(=O)C(C(=O)c1ccc2ccccc2c1)C1OC(=O)c2ccccc21 (configuration not stated) | > 55 µM | 25.7 µM | –
COC(=O)C1(C#N)C(C)(C)N=C(c2ccccc2)C12CCCCC2 (configuration not stated) | > 200 µM | 93.3 µM | –
O=c1ccc2nc3ccc(O)cc3oc-2c1 | > 200 µM | 14.1 µM | –
CCOC(=O)C(Cc1ccc([N+](=O)[O-])cc1)NC(=O)CC1c2ccccc2-c2ccccc21 (configuration not stated) | > 11.7 µM | > 11.7 µM | –
CCOC(=O)c1ccc(CS(=O)(=O)c2ccc(OC)cc2)c([N+](=O)[O-])c1 | > 95.5 µM | > 95.5 µM | –
COC1=C(Br)C(=O)c2nc(C)ccc2C1=O | – | – | inactive
CC(=O)OC(/C=C1/C=CC(=O)O1)COC(=O)c1ccccc1 (configuration not stated) | > 309 µM | 5.89 µM | –
Nc1c2nc(Nc3ccccc3)sc2nc(=S)n1-c1ccc([N+](=O)[O-])cc1 | > 50.1 µM | > 50.1 µM | –
COc1ccccc1NC(=O)C(=O)C(C#N)CC(C)(C)C=O (configuration not stated) | > 85.1 µM | > 85.1 µM | –
COc1cc2c3c(c1)CCCN3CCC2 | > 200 µM | 13.2 µM | –
